Results on one substance are retold here after patent publication US20120034162A1, “Fullerene Assisted Cell Penetrating Peptides” (William March Rice University, priority 2006, published 2012).

Entries after “also recorded” stand apart in the source; their conditions may differ.

For data set [1], the system named is HEK-293a cells. The data set is described as follows: Cellular uptake by fluorescence microscopy. The class given is cell-based, human. As to the method: Cellular uptake. An immortalized human embryonic kidney epithelial cancer cell line was used in initial cellular uptake studies. HEK-293a cells were cultured in RMPI 1640 medium supplemented with 10% fetal bovine serum (FBS) in 5% CO2 and 37° C. humidified incubator. The medium was supplemented with penicillin (100 U·mL^−1), streptomycin (100 μg/mL), and glutamine (2 mM). For experiments and microscopy, cells were seeded at 1×10^4 cells per well on 6-well plates and grown for two days in RPMI supplemented with 10%. Cells were incubated with each peptide (40 μM) for 24 hrs at 37° C. After treatment, the cells were washed with RPMI supplemented with 10% FBS and phosphate buffered saline (PBS, 10 mM). Fluorescence was observed by a fluorescent microscope equipped with FITC and red filters.

Data set [2] deals with HEK-293a cells. Briefly: Cellular uptake by fluorescence microscopy. In kind it is cell-based, human. This is another data set of the same source.
The format of data set [3] is in vitro ADME, bovine. The source says: Peptide stability. In order to test the stability of the fullerene peptide linkage, samples of Baa-Lys(FITC)-Lys8-OH and H-Baa-Lys(FITC)-NLS were exposed to bovine plasma for up to 3 days and analyzed by HPLC.
Data set [4] can be described thus: Peptide aggregation, particle size in solution by dynamic light scattering (DLS). The class given is physicochemical. To be noted: PBS buffer. The method, then:
Rink amide and Wang resin were obtained from Novabiochem, USA. Amino acids were purchased from Novabiochem and used as received. MALDI-TOF mass analysis was performed on a linear Protein-TOF Bruker instrument using sinipinic acid as the matrix. CD spectra were obtained on a Jasco J-700 dichrometer using 1 mm path-length quartz cells. Peptide solutions were 1.0 mg·mL^−1 solution in milliQ H2O or PBS buffer. In the case of peptides (21, 22 and 23), the pH was first adjusted to 10 to break up any aggregations and then adjusted by addition of 0.1 mM HCl until the desired pH was obtained. CD spectra were recorded in millidegrees and converted to residual molar ellipticity. TEM measurements were performed on a JEOL 2010 TEM at 200 kV. DLS Measurements were performed on the samples using an Brookhaven 90Plus submicron particle-size analyzer with HeNe laser (30 mW) that operates at […] wavelength.
With reference back to Table 1, in order to understand the intracellular transport of the FITC functionalized Baa-peptides, 25 and Baa-Lys(FITC)-NLS (26), their particle size in solution was determined by dynamic light scattering (DLS). Three series of solutions of 24, 25 and 26 in the range of 0.125-2.0 mg/mL was prepared by weighing method. PBS buffer prepared from HPLC grade water was used as solvent and was filtered through a […] cup filter (Millipore, Express).

The nature of data set [5]: Aggregate size and morphology by cryo-TEM. In kind it is physicochemical. To be noted: 1.0 mg/mL in PBS buffer, pH 7. As to the method: To further examine the actual aggregate size and morphology, cryo-TEM experiments were performed for both peptides 25 and 26. The images were taken in the concentration of 1.0 mg/mL for both peptides. Samples for cryo-TEM studies were prepared by dipping a copper grid coated with amorphous carbon-holey film into the sample solution. The TEM images were mainly taken in the hole region of the TEM grid to minimize the artificial effect from the samples or ice. […] Both peptides forms spherical and ellipsoidal clusters, with an average aggregate sizes of 40-80 nm for 25 and 50-150 nm for 26, which are generally smaller than the diameters observed by DLS. Consistent with the DLS study, Baa-Lys(FITC)-Lys8-OH (25) are more uniform in size than Baa-Lys(FITC)-NLS (26). FIGS. 9a and 9b show the vitreous ice cryo-TEM micrograph of the large aggregates (9a) and small aggregates (9b) formed by Baa-Lys(FITC)-Lys8-OH in PBS buffer (1 mg/mL at pH=7). There are two dominant groups in size for 25; one type has the diameter of 40-80 nm with predominant population at size of ca. 50 nm, and the other population has a diameter less than 20 nm, which may correspondent to the size of fullerene peptides itself. In contrast, the size distribution of 26 large aggregates is much polydisperse, ranging from 50-150 nm with no obvious dominant population for large aggregates, while smaller aggregates has similar size as Baa-Lys(FITC)-Lys8-OH. FIGS. 10a and 10b show the vitreous ice cryo-TEM micrograph of the large aggregates (10a) and small aggregates (10b) formed by Baa-Lys(FITC)-NLS in PBS buffer (1 mg/mL at pH=7). The aggregate sizes from the two peptides seem to be consistent with the hydrophilicity of peptide chain as more hydrophilic sequence corresponds to smaller size (25), and vice versa (26).

On to Baa-Lys(FITC)-(Lys)8-OH [Peptide 25], for which the “cellular uptake / localization by fluorescence” value in data set [1] (40 μM, 24 hrs, 37° C., listed as H-Baa-Lys(FITC)-Lys8-OH) was “strong green fluorescence within the cytoplasm; also recorded: accumulates in the cytoplasm”. For the same substance, the “Active Cellular Uptake” value in data set [1] (HEK-293a cells) is recorded as “Yes”. In data set [2], the “cellular uptake at 4° C.” value is given as “no cellular uptake activity”. Further, the “degradation of the sample in bovine plasma” value in data set [3] is recorded as “No degradation”. In addition, in data set [4], the “aggregate size, minor smaller component” value is “ca. 10 nm” and the “fraction of major aggregate component” value is given as “ca. 60%”. For the same substance, the “third larger aggregate size at high concentration” value in data set [4] (2.0 mg/mL (25), above 1.0 mg/mL (26)) is “ca. 1500 nm”. The “distribution of minor smaller aggregate” value in data set [4] (0.125-1.0 mg/mL) is reported as 5-20 nm. Besides, in data set [4] (0.125-2.0 mg/mL), the “aggregate size, major (or single) component” value is given as “ca. 180 nm”. In data set [5], the “average aggregate size (large aggregates)” value was 40-80 nm, the “diameter of small aggregate population” value is recorded as “less than 20 nm” and the “predominant population size of large aggregates” value is given as “ca. 50 nm”.
